Common to all, as to assay: biochemical
What all share (format): biochemical

For test [1], the target named is T1, 382 unique human kinases (Homo sapiens, UniProt Q9NY57).
T1 construct: purchased Reaction Biology (HotSpot contract assay)
The following applies: kinase STK32B/YANK2, compound 10 uM; for remaining activity at 10 µM: read-out: % Enzyme Activity (relative to DMSO controls).

Test [2] concerns the target T2, 382 unique human kinases (Homo sapiens, UniProt Q13882).
T2 construct: purchased Reaction Biology (HotSpot contract assay)
As to conditions: BRK, 10 uM; for remaining activity at 10 µM: read-out: % Enzyme Activity (relative to DMSO controls).

Test [3] concerns the target T3, 382 unique human kinases (Homo sapiens, UniProt Q13557).
T3 construct: purchased Reaction Biology (HotSpot contract assay)
As to conditions: CAMK2d, 10 uM; for remaining activity at 10 µM: read-out: % Enzyme Activity (relative to DMSO controls).

In test [4] the target is T4, 382 unique human kinases (Homo sapiens, UniProt P07949, V804E).
T4 construct: purchased Reaction Biology (HotSpot contract assay)
As to conditions: RET (V804E), 10 uM; for remaining activity at 10 µM: read-out: % Enzyme Activity (relative to DMSO controls).

Test [5] has as its target T5, 382 unique human kinases (Homo sapiens, UniProt Q9UM73, L1152R).
T5 construct: purchased Reaction Biology (HotSpot contract assay)
As to conditions: ALK (L1152R), [ATP] 30 µM, compound 10 uM; for remaining activity at 10 µM: read-out: % Enzyme Activity (relative to DMSO controls).

Test [6] addresses T6, 382 unique human kinases (Homo sapiens, UniProt P16234, D842V).
T6 construct: purchased Reaction Biology (HotSpot contract assay)
The following applies: PDGFRa (D842V), [ATP] 1 µM, compound 10 uM; for remaining activity at 10 µM: read-out: % Enzyme Activity (relative to DMSO controls).

Test [7] has as its target T7, 382 unique human kinases (Homo sapiens, UniProt O00141).
T7 construct: purchased Reaction Biology (HotSpot contract assay)
T7 sequence (O00141 1-431): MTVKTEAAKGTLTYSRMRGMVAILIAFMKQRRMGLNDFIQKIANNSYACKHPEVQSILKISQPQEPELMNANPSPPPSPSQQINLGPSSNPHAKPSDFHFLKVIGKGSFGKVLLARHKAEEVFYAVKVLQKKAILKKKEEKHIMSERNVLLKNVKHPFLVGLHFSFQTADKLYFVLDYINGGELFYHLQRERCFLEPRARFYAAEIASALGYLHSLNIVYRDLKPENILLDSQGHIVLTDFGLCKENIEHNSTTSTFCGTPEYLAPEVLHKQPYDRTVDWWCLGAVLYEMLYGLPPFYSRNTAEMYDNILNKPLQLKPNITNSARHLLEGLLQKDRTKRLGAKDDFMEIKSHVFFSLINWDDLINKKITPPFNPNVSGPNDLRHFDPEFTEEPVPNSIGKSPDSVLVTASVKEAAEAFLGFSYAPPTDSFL
As to conditions: SGK1, 10 uM; for remaining activity at 10 µM: read-out: % Enzyme Activity (relative to DMSO controls).

Test [8] deals with T8, 382 unique human kinases (Homo sapiens, UniProt Q05655).
T8 construct: purchased Reaction Biology (HotSpot contract assay)
As to conditions: PKCd, 10 uM; for remaining activity at 10 µM: read-out: % Enzyme Activity (relative to DMSO controls).

Test [9] has as its target T9, 382 unique human kinases (Homo sapiens, UniProt Q06418).
T9 construct: purchased Reaction Biology (HotSpot contract assay)
T9 sequence (Q06418 41-890): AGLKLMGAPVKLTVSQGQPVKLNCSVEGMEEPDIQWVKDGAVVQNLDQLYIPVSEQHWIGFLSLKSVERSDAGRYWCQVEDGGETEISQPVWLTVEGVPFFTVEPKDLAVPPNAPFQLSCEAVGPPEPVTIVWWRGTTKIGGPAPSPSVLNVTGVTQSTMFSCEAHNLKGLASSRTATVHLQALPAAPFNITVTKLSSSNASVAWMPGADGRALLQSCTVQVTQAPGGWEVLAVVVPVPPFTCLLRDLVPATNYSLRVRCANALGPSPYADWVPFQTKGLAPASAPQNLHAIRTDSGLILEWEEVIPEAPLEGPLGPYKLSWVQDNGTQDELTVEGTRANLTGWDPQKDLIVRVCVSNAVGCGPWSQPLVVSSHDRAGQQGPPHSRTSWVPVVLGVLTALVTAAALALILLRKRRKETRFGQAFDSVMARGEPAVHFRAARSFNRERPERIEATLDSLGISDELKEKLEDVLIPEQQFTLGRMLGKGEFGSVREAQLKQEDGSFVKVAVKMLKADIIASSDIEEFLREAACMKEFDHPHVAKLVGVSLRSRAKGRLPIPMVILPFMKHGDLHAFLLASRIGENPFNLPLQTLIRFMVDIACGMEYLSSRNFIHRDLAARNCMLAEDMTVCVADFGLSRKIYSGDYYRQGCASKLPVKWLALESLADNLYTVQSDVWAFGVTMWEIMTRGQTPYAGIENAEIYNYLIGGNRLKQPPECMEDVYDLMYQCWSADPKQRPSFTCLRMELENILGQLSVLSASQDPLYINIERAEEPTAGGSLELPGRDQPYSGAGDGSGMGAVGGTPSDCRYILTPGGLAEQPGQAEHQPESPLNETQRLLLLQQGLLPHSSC
The following applies: TYRO3/SKY, 10 uM; for remaining activity at 10 µM: read-out: % Enzyme Activity (relative to DMSO controls).

Test [10] has as its target T10, 382 unique human kinases (Homo sapiens, UniProt Q16584).
T10 construct: purchased Reaction Biology (HotSpot contract assay)
As to conditions: MLK3/MAP3K11, 10 uM; for remaining activity at 10 µM: read-out: % Enzyme Activity (relative to DMSO controls).

Test [11] deals with T11, 382 unique human kinases (Homo sapiens, UniProt Q16832).
T11 construct: purchased Reaction Biology (HotSpot contract assay)
T11 sequence (Q16832 22-855): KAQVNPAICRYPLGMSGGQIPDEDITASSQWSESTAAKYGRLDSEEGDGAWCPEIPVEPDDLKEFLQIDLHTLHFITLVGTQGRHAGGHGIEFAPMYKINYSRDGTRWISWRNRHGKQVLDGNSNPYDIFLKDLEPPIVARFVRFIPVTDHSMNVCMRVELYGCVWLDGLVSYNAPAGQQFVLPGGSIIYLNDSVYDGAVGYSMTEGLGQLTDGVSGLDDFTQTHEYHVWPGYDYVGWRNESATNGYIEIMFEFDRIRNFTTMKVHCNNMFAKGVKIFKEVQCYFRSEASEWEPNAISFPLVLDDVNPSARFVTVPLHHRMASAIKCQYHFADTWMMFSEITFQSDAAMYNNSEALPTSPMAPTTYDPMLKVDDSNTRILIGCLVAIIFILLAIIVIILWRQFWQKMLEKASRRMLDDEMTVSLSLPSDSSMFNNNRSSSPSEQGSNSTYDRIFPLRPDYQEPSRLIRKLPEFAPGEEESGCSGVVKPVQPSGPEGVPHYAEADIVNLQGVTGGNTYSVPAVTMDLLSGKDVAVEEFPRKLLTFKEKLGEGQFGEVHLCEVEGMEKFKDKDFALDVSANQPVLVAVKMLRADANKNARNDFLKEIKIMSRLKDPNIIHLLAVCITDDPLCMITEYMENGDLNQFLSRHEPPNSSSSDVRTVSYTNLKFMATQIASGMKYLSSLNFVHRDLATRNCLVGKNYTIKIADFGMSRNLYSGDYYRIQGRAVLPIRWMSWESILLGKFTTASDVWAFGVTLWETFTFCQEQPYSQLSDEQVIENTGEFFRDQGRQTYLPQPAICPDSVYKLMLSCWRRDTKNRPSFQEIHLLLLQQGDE
The following applies: DDR2, [ATP] 5 µM.

The mark [12] stands for this setting: compound 10 uM, read-out: % Enzyme Activity (relative to DMSO controls).

T3 sequence (Q13557 whole entry): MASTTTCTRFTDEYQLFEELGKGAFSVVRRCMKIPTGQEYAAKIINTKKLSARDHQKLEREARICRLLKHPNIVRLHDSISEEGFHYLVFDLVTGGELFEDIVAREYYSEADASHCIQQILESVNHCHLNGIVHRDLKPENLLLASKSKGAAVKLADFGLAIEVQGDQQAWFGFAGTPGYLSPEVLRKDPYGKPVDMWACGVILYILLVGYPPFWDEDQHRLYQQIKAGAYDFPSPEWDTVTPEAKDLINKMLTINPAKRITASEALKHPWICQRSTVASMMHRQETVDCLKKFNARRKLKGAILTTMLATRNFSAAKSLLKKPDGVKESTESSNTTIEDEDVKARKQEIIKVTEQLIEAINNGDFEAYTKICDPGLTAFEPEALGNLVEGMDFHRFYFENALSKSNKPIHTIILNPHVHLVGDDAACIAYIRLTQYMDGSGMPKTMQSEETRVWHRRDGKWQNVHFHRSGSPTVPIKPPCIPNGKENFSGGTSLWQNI
T5 sequence (Q9UM73 19-1620 L1152R): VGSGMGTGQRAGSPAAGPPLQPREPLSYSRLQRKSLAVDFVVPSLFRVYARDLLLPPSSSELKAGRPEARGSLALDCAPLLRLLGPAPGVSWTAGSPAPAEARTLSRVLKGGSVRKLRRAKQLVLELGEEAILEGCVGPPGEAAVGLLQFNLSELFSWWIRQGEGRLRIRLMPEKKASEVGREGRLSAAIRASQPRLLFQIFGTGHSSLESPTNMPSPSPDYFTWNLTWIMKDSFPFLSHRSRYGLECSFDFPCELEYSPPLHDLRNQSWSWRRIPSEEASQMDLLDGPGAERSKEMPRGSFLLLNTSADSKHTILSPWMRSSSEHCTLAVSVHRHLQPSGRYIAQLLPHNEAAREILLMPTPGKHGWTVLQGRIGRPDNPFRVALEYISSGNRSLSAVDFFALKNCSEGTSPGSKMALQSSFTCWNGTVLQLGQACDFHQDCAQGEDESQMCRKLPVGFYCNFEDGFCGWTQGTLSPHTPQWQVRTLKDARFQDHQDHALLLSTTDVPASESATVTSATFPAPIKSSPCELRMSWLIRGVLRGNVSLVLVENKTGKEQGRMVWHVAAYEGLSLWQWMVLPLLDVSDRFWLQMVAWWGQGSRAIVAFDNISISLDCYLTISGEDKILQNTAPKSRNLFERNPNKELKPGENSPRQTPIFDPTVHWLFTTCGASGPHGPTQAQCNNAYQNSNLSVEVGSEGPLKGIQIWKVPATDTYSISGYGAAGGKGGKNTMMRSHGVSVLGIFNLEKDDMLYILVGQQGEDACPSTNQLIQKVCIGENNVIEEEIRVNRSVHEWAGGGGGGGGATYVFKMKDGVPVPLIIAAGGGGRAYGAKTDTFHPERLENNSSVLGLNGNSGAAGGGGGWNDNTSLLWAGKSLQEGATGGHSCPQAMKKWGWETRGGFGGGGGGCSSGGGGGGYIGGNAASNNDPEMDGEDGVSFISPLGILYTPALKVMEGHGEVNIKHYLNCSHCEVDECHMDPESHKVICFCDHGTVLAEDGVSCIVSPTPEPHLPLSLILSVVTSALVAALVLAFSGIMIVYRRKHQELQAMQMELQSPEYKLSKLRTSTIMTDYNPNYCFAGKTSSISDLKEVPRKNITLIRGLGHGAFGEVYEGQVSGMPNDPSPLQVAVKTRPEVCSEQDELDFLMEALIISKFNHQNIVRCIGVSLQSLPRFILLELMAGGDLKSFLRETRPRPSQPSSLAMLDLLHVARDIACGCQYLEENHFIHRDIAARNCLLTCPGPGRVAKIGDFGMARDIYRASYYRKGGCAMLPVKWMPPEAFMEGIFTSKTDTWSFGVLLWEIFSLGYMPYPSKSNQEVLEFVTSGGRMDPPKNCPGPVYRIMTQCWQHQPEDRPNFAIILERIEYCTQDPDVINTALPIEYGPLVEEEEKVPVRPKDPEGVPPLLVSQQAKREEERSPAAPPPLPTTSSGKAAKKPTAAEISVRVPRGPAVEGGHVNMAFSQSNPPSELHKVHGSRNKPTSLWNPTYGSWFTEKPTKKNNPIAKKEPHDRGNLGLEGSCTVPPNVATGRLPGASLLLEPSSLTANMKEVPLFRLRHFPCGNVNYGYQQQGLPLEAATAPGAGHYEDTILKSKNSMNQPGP
T2 sequence (Q13882 whole entry): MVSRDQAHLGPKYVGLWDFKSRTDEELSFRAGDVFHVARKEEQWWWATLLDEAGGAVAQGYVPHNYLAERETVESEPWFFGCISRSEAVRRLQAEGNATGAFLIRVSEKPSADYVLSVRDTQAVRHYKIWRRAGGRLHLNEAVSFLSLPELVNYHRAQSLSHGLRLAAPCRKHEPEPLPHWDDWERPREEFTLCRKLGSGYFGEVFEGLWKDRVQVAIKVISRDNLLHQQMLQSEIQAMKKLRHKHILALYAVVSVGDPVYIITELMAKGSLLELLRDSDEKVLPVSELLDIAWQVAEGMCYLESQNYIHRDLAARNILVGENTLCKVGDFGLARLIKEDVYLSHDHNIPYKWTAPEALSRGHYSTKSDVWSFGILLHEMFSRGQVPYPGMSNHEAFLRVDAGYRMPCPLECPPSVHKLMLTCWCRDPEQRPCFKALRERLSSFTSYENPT
T1 sequence (Q9NY57 whole entry): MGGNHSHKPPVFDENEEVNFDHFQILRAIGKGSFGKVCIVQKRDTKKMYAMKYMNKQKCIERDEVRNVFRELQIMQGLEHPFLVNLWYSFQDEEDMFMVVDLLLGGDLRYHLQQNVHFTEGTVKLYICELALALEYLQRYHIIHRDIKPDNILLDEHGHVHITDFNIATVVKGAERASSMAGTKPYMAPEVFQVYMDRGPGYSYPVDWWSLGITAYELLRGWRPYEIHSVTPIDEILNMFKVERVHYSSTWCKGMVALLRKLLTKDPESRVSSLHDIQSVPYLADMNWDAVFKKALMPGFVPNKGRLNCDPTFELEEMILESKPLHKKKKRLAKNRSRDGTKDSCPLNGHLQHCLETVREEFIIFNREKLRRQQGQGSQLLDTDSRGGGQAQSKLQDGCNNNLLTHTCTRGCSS
T4 sequence (P07949 29-1114 V804E): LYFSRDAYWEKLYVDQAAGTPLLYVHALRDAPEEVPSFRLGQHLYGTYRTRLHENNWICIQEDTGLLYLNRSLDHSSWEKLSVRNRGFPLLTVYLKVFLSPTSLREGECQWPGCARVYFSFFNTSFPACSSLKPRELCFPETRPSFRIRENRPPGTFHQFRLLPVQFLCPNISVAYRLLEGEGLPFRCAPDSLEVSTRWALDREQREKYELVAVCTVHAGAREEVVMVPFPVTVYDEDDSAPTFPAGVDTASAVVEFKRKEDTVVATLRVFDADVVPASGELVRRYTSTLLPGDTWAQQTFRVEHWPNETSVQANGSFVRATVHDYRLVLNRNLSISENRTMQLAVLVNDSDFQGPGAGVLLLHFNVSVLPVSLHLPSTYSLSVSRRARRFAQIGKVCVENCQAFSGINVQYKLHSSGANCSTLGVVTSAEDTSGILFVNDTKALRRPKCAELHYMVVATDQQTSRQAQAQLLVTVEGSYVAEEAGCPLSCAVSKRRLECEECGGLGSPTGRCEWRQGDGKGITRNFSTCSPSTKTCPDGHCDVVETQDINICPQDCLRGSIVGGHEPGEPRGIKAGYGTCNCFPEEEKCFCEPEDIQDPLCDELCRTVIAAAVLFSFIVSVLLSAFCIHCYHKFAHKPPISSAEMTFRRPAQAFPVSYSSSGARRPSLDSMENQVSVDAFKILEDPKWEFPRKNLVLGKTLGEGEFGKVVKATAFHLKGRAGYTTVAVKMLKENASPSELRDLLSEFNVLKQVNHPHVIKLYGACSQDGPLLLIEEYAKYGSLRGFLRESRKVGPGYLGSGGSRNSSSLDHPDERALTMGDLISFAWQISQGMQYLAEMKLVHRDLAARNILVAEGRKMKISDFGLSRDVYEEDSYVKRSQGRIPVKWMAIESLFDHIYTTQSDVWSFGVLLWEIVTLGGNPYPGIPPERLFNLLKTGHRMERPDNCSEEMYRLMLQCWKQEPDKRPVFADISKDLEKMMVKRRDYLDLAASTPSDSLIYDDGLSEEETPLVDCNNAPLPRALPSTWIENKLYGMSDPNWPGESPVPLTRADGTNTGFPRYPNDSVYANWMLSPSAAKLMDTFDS
T10 sequence (Q16584 whole entry): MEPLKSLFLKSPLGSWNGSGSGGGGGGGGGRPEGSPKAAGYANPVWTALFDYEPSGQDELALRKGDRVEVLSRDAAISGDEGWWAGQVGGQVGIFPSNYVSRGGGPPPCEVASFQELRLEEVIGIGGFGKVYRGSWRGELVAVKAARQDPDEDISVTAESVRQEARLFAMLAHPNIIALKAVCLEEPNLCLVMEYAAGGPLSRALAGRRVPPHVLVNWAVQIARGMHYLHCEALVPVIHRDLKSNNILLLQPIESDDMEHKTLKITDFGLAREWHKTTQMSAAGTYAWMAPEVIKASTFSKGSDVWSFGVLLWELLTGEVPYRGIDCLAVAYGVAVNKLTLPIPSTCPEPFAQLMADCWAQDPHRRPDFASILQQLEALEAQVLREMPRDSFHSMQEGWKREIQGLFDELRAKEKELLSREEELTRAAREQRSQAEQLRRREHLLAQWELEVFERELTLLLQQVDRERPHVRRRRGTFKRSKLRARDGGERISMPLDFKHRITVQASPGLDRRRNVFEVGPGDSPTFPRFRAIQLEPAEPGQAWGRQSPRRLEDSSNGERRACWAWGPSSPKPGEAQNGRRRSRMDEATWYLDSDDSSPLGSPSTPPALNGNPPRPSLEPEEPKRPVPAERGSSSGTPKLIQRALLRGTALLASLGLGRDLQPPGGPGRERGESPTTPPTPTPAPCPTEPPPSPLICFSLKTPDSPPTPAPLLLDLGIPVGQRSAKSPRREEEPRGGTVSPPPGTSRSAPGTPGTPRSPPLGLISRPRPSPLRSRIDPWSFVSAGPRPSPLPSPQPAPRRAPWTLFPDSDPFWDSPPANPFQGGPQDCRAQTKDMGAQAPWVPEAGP

For `CC(C)c1cc(-c2n[nH]c(=O)n2-c2ccc3c(ccn3C)c2)c(O)cc1O` [Ganetespib (STA9090)], the remaining activity at 10 µM was determined as 107% on 382 unique human kinases [1], 67.4% at 382 unique human kinases [2] and 72.8% on 382 unique human kinases [3].

`CC(C)c1cc(-c2n[nH]c(=O)n2-c2ccc3c(ccn3C)c2)c(O)cc1O` [Ganetespib]: the remaining activity at 10 µM at 382 unique human kinases [4] turned out to be 92.2%; at 382 unique human kinases [5], 14.2%; on 382 unique human kinases [6], 76.2%; on 382 unique human kinases [7], 99%; at 382 unique human kinases [8] it was 92%; on 382 unique human kinases [9], 102%. The remaining activity at 10 µM on 382 unique human kinases [10] worked out at 91%; on 382 unique human kinases [11] (setting [12]), 14.5%. In addition, the remaining activity at 1 µM at 382 unique human kinases [11] (compound 1 uM, read-out: % Enzyme Activity (relative to DMSO controls)) was determined as 51.9%.

`CCNC(=O)c1noc(-c2cc(C(C)C)c(O)cc2O)c1-c1ccc(CN2CCOCC2)cc1` [Luminespib (AUY-922)]: the “% Enzyme Activity (relative to DMSO controls)” value on 382 unique human kinases [1] turned out to be 88.50%; on 382 unique human kinases [2], 83.67%; at 382 unique human kinases [3] it was 89.83%. Further, the remaining activity at 10 µM at 382 unique human kinases [1] amounted to 88.8%; at 382 unique human kinases [2] it was 84.8%; on 382 unique human kinases [3], 89.9%.

As to `CCNC(=O)c1noc(-c2cc(C(C)C)c(O)cc2O)c1-c1ccc(CN2CCOCC2)cc1` [Luminespib], the “% Enzyme Activity (relative to DMSO controls)” value stood at 91.98% at 382 unique human kinases [4]; 90.08% at 382 unique human kinases [5]; 50.60% on 382 unique human kinases [6]; 99.71% at 382 unique human kinases [7]; 95.84% on 382 unique human kinases [8]; 106.19% at 382 unique human kinases [9]. Also, the “% Enzyme Activity (relative to DMSO controls)” value on 382 unique human kinases [10] came out at 103.89%; at 382 unique human kinases [11] (compound 10 uM), 105.89%. In addition, the remaining activity at 10 µM on 382 unique human kinases [4] amounted to 93.3%; at 382 unique human kinases [5], 90.7%; on 382 unique human kinases [6] it was 59.9%; at 382 unique human kinases [7] it was 100%; on 382 unique human kinases [8], 96.4%; at 382 unique human kinases [9] it was 107%. For the same molecule, the remaining activity at 10 µM at 382 unique human kinases [10] turned out to be 104%; on 382 unique human kinases [11] (setting [12]) it was 107%.

The values above are taken from paper PMC8550792, “Evolution of kinase polypharmacology across HSP90 drug discovery” (Cell Chemical Biology, 2021).
